Assay results from patent US20190177440A1, “COMPOUND OR SALT THEREOF, ANTI-INFLAMMATORY AGENT, ANTI-CANCER AGENT AGAINST LUNG CANCER, METHOD OF PRODUCING COMPOUND OR SALTS THEREOF, METHOD OF TREATING INFLAMMATORY DISEASES AND METHOD OF TREATING LUNG CANCER” (TFK CO., LTD., priority 2016, published 2019).

Assays:
[1] = system: Lewis lung carcinoma: 3LL; assay: Tumor volume in mice bearing Lewis lung carcinoma 3LL (Example 9); format: in vivo, mouse; conditions: Example 9-1: ip 0.5 mg/10 mL/kg once, without CY; days 3, 6, 9; FIG. 9
Method: (1) Preparation of Cancer-Bearing Mice Suspensions of Lewis lung cancer cell lines (Lewis lung carcinoma: 3LL, obtained from JCRB cell banks) were subcutaneously administered to the ventral region of five male C57 BL/6J mice aged 6 weeks so that the cancer cell dose per animal was 2.5×10^5 cells per 200 μL. Two weeks after dosing, tumors were excised from one of the mice and washed on dishes with PBS (−). Next, the washed tumor was made into a finely divided tumor fragment of about 2 mm square, the tumor fragment was transferred to a 50 mL tube, 5 mL of collagenase solution was added, and the mixture was warmed at 37° C. for 10 minutes. Thereafter, the collagenase solution containing the tumor fragments was pipetted into finer tumor fragments, and the collagenase solution containing the tumor fragments was transferred to another 50 mL tube and cooled on ice. After cooling, an additional 5 mL of collagenase solution was added to the collagenase solution containing the tumor fragments, and the same procedure was repeated 5 times until no tumor fragments could be observed. Thereafter, the collagenase solution containing the tumor fragment was filtered through a cell strainer (mesh size: 70 μm, manufactured by BD Corporation), and the filtrate was centrifuged at 1200 rpm for 7 minutes. After centrifugation, the supernatant was removed, 20 ml of […] medium (serum-free) was added to the precipitate, and after suspension by inversion mixing, the precipitate was centrifuged at 1200 rpm for 7 minutes. After centrifugation, the supernatant was removed, and the precipitate was washed twice with PBS (−), and then 10 mL of PBS (−) was added and suspended to prepare a cancer cell suspension. The cancer cell suspension was subcutaneously administered to the ventral portion of the 12 mice so that the cancer cell dose per animal was 2.5×10^5 cells per 200 μL. Fourteen days after dosing, tumors were excised from 10 of the mice and cancer cell suspensions were prepared in the same manner as described above. The cancer cell suspensions were administered intracutaneously into the abdomen of the 108 mice so that the cancer cell dose per animal was 2.5×10^5 cells per 50 μL. After administration, mice were divided into six groups (n=6 in each group) as shown below at the time point when the tumor size of each mouse became about 5 mm in diameter (day 8 after administration). […]
The major and minor diameters of the tumors were measured using calipers on Days 3, 6 and 9 on the day of grouping as day 0, and the tumor volume was calculated based on these measurements. […]

NF-κB = assay: Nuclear NF-κB level in RAW264.7 cells stimulated with LPSp (Example 5); format: cell-based, mouse; conditions: final 1, 100 and 10,000 ng/mL, then LPSp 100 ng/mL, FIG. 5
Method: The culture medium was added to mouse macrophage cells (RAW264.7, ATCC) to prepare solutions at concentrations of 1.067×10^6 cells/mL. The solutions were seeded in 6 well plates in 3 mL portions, i.e., 3.2×10^6 cells/3 mL/well. After seeding, the test solution was incubated at 37° C. in a 5% CO2 for 2 hours, and 30 μL of the test solution was added to each well. After adding the test solution, the test solution was incubated at 37° C. in a 5% CO2 for 24 hours. The culture supernatant of each of the wells was then collected in a 15 mL tube. Then, 1 mL of the fresh culture solution was added to each of the wells, and after spreading over the entire well, the operation of collecting the culture solution into the 15 mL tube was repeated twice. Thereafter, the culture solution collected in the 15 mL tube was centrifuged at 1,000 rpm for 3 minutes, the supernatant was removed, and 3 mL of a new culture solution at 37° C. was added to suspend the culture solution, and centrifuged again under the same conditions. After centrifugation, the supernatant was removed, and 2 mL of the above-mentioned culture solution at 37° C. was added to the precipitate and suspended. Then, 2 mL of the suspension was added to each well to which 1 mL of a new culture medium had been added in advance. Thereafter, 30 μL of a new culture medium was added (hereinafter, this step is referred to as a “culture medium addition step”). After incubation at 37° C. in a 5% CO2 for 30 minutes, the culture supernatants of the wells were collected in 15-mL tubes, centrifuged at 1,000 rpm for 3 minutes, and the supernatants were removed by an aspirator. In addition, to the wells of the 6-well plate from which the culture supernatant was removed, 3 mL of cooled PBS (Phosphate buffered saline)/Phosphatase Inhibitors solution was added, the cells were removed by pipetting, and the cell suspension was added to the 15-mL tubes. The 15 mL tube was centrifuged at 1,000 rpm for 3 minutes, the supernatant was removed by an aspirator, and 0.5 mL of the cooled PB S/Phosphatase Inhibitors solution was added to the 15 mL tube and suspended to prepare a cell suspension. Nucleoproteins were extracted from the cell suspensions using Nuclear Extract kit (manufactured by Active Motif).
The amount of NF-κB in the nucleoprotein was confirmed by measuring the absorbance using the Trans AM NF KB p65 kit (manufactured by Active Motif).
In this example, an experiment was conducted in the same manner as in Example 4 except for the following two points, and the amount of NF-κB in the nucleoprotein was confirmed by measuring the absorbance. That is, in this example, three types of test solutions were used as the test solution, in which the concentration of the purified product was 100 ng/mL, 10,000 ng/mL, and 1,000,000 ng/mL. […]

## CCCCCC/C=C/CCCCCC(=O)OC(CCCCCCCCCCC)CC(=O)NC1C(OCC2OC(OP(=O)(O)O)C(NC(=O)CC(=O)CCCCCCCCCCC)C(OC(=O)CC(O)CCCCCCC)C2O)OC(COC2(C(=O)O)CC(OC3(C(=O)O)CC(O)C(OC4OC(C(=O)O)C(OC5OC(CO)C(O)C(O)C5O)C(O)C4O)C(C(O)CO)O3)C(OC3OC(COP(=O)(O)O)C(OC4OC(CO)C(O)C(O)C4O)C(O)C3O)C(C(O)CO)O2)C(OP(=O)(O)O)C1OC(=O)CC(O)CCCCCCC (centres unmarked) [Formula (B1)]
[1]
  tumor volume versus saline group: equivalent results
NF-κB
  amount of NF-κB in the nucleoprotein (absorbance): Equivalent results were obtained

## CCCCCC/C=C/CCCCCC(=O)OC(CCCCCCCCCCC)CC(=O)NC1C(OCC2OC(OP(=O)(O)O)C(NC(=O)CC(=O)CCCCCCCCCCC)C(OC(=O)CC(O)CCCCCCC)C2O)OC(COC2(C(=O)O)CC(OC3(C(=O)O)CC(OC4OC(C(=O)O)C(OC5OC(CO)C(O)C(O)C5O)C(O)C4O)C(O)C(C(O)CO)O3)C(OC3OC(COP(=O)(O)O)C(OC4OC(CO)C(O)C(O)C4O)C(O)C3O)C(C(O)CO)O2)C(OP(=O)(O)O)C1OC(=O)CC(O)CCCCCCC (centres unmarked) [Formula (A1)]
[1]
  tumor volume versus saline group: equivalent results
NF-κB
  amount of NF-κB in the nucleoprotein (absorbance): Equivalent results were obtained

## CCCCCC/C=C/CCCCCC(=O)OC(CCCCCCCCCCC)CC(=O)NC1C(OCC2OC(OP(=O)(O)O)C(NC(=O)CC(=O)CCCCCCCCCCC)C(OC(=O)CC(O)CCCCCCC)C2O)OC(COC2(C(=O)O)CC(OC3(C(=O)O)CC(O)C(OC4OC(C(=O)O)C(OC5OC(CO)C(O)C(O)C5O)C(O)C4O)C(C(O)CO)O3)C(OC3OC(CO)C(O)C(O)C3O)C(C(O)CO)O2)C(OP(=O)(O)O)C1OC(=O)CC(O)CCCCCCC (centres unmarked) [Formula (B2)]
[1]
  tumor volume versus saline group: equivalent results
NF-κB
  amount of NF-κB in the nucleoprotein (absorbance): Equivalent results were obtained

## CCCCCC/C=C/CCCCCC(=O)OC(CCCCCCCCCCC)CC(=O)NC1C(OCC2OC(OP(=O)(O)O)C(NC(=O)CC(=O)CCCCCCCCCCC)C(OC(=O)CC(O)CCCCCCC)C2O)OC(COC2(C(=O)O)CC(OC3(C(=O)O)CC(OC4OC(C(=O)O)C(OC5OC(CO)C(O)C(O)C5O)C(O)C4O)C(O)C(C(O)CO)O3)C(OC3OC(CO)C(O)C(O)C3O)C(C(O)CO)O2)C(OP(=O)(O)O)C1OC(=O)CC(O)CCCCCCC (centres unmarked) [Formula (A2)]
[1]
  tumor volume versus saline group: equivalent results
NF-κB
  amount of NF-κB in the nucleoprotein (absorbance): Equivalent results were obtained
